In publication PMC11790914, “Chemogenomics for steroid hormone receptors (NR3)” (Communications Chemistry, 2025):
“And” between values parts separate entries of the source, which are not always exact repeats. Equal values may be shown once. Read-outs that look alike come from different tables or passages of the source.

Tests used:
[1] = molecular target: T1, BRD4 (Homo sapiens, UniProt O60885); test: Liability panel screening by DSF: BRD4; assay type: binding; conditions: read-out: Mean ΔTM BRD4
T1 construct: This panel comprised ten highly ligandable kinases and bromodomains; made in house
Outline: (§1)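 ∆Tm in K was taken from Boltzmann-fitted unfolding inflection points, run in duplicate with a temperature ramp of 3 °C per minute up to 85 °C. Each recombinant protein (2 µM) was in HEPES 10 mM pH 7.5 and NaCl 500 mM, with SYPRO Orange dye at 1:1000.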

[2] = molecular target: T2, GSK3B (Homo sapiens, UniProt P49841); test: Liability panel screening by DSF: GSK3B; assay type: binding; conditions: read-out: Mean ΔTM GSK3B
T2 construct: made in house
T2 sequence (P49841 whole entry, species assumed): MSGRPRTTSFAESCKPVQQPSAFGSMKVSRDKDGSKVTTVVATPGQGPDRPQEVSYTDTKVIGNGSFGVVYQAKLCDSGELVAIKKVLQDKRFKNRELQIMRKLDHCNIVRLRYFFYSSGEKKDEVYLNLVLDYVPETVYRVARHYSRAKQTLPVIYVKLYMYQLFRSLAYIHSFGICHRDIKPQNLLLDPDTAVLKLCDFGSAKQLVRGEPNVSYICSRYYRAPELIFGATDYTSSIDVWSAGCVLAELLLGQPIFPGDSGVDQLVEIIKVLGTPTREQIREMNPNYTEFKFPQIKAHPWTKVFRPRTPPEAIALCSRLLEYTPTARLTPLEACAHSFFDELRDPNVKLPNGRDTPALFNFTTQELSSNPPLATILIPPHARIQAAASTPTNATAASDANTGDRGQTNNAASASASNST

[3] = test system: HEK293T cells; test: Cytotoxicity: metabolic activity (WST-8 / CCK-8 assay); conditions: 1 µM, single replicates
[4] = test system: NR3A1 (ERα); conditions: (lit.); ref Supplementary Table 1; read-out: Potency [nM] EC50, NR3A1 (ERα); cited from earlier work
[5] = molecular target: T3, AURKA (Homo sapiens, UniProt O14965); test: Liability panel screening by DSF: AURKA; assay type: binding; conditions: read-out: Mean ΔTM AURKA
T3 construct: made in house
T3 sequence (O14965 1-403): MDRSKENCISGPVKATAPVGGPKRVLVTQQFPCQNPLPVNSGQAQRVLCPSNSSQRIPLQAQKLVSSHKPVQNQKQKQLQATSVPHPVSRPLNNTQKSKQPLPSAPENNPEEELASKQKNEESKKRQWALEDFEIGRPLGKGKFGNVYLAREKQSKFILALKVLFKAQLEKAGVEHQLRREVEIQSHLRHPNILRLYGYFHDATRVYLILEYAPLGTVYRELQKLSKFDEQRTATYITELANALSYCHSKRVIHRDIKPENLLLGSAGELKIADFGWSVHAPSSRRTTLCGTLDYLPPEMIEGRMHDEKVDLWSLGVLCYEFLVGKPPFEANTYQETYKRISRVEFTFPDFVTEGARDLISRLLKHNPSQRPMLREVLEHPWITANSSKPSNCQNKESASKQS
Outline: as §1

[6] = test system: HEK293T cells; test: Evaluation of cytotoxicity (overall: growth-rate, metabolic activity, apoptosis, necrosis); assay type: cell-based; conditions: HEK293T, 24 h; budesonide (3 µM), others at tested concentration
Protocol: The selection of 40 CG candidates was acquired from commercial vendors (purity ≥95%) and applied to initial toxicity screening. Cytotoxicity was determined in HEK293T cells considering growth-rate, metabolic activity as well as apoptosis and/or necrosis induction to evaluate suitability of the compounds for CG application in cellular settings (Fig. 3a–d, Supplementary Fig. 1, Supplementary Data 1). The candidates were generally well tolerated at concentrations >>EC50/IC50 that we recommend for CG application with only four compounds showing mild toxic effects. […] In terms of cytotoxicity, all candidates thus appeared suitable for inclusion in an NR3 CG set.

[7] = test system: HEK293T cells; test: Cytotoxicity: growth-rate (change in confluence over 24 h); conditions: 1 µM, normalized to 0.1% DMSO control, single replicates (n=1...)
[8] = molecular target: T4, CSNK1D (Homo sapiens, UniProt P48730); test: Liability panel screening by DSF: CSNK1D; assay type: binding; conditions: read-out: Mean ΔTM CSNK1D
T4 construct: made in house
T4 sequence (P48730 whole entry, species assumed): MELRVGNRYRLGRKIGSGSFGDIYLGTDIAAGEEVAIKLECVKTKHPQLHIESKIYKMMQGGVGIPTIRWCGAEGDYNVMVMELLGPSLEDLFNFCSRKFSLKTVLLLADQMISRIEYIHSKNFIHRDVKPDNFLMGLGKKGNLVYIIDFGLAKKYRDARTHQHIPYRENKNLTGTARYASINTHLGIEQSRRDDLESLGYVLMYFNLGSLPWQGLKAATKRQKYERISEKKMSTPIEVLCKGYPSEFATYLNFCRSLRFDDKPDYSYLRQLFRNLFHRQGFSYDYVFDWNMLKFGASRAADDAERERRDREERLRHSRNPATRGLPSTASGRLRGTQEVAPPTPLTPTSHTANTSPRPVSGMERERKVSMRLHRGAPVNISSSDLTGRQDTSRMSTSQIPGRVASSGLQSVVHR
Outline: as §1

[9] = test system: HEK293T cells; test: Cytotoxicity: apoptosis induction (caspase-3/7 DEVD fluorogenic DNA dye); conditions: for Apoptosis induction [AI]: 1 µM, single replicates
[10] = molecular target: T5, CDK2 (Homo sapiens, UniProt P24941); test: Liability panel screening by DSF: CDK2; assay type: binding; conditions: read-out: Mean ΔTM CDK2
T5 construct: made in house
Outline: as §1

[11] = test system: Gal4-VP16; assay type: cell-based; conditions: 1 µM
[12] = molecular target: T6, BRPF1 (Homo sapiens, UniProt P55201); test: Liability panel screening by DSF: BRPF1; assay type: binding; conditions: read-out: Mean ΔTM BRPF1
T6 construct: This panel comprised ten highly ligandable kinases and bromodomains; made in house
T6 sequence (P55201 628-732 limits assumed): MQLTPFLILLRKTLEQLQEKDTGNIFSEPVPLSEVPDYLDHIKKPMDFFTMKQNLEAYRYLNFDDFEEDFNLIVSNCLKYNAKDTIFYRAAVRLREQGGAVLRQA
Outline: as §1

[13] = molecular target: T7, MAPK1 (Homo sapiens, UniProt P28482); test: Liability panel screening by DSF: MAPK1; assay type: binding; conditions: read-out: Mean ΔTM MAPK1
T7 construct: made in house
T7 sequence (P28482 whole entry, species assumed): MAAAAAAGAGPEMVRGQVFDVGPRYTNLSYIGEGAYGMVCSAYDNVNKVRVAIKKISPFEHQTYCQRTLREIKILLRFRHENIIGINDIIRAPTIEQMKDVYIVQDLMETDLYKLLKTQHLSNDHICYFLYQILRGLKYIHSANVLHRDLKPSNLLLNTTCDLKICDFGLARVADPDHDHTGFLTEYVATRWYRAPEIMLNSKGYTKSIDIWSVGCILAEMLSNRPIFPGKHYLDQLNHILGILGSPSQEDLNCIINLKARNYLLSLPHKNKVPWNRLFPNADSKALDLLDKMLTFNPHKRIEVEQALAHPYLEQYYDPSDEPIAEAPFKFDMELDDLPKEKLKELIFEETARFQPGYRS
Outline: as §1

[14] = test system: NR3A2 (ERβ); conditions: (lit.); ref Supplementary Table 1; read-out: Potency [nM] EC50, NR3A2 (ERβ); cited from earlier work
[15] = molecular target: T8, ABL1 (Homo sapiens, UniProt P00519); test: Liability panel screening by DSF: ABL1; assay type: binding; conditions: read-out: Mean ΔTM ABL1
T8 construct: made in house
T8 sequence (P00519 whole entry, species assumed): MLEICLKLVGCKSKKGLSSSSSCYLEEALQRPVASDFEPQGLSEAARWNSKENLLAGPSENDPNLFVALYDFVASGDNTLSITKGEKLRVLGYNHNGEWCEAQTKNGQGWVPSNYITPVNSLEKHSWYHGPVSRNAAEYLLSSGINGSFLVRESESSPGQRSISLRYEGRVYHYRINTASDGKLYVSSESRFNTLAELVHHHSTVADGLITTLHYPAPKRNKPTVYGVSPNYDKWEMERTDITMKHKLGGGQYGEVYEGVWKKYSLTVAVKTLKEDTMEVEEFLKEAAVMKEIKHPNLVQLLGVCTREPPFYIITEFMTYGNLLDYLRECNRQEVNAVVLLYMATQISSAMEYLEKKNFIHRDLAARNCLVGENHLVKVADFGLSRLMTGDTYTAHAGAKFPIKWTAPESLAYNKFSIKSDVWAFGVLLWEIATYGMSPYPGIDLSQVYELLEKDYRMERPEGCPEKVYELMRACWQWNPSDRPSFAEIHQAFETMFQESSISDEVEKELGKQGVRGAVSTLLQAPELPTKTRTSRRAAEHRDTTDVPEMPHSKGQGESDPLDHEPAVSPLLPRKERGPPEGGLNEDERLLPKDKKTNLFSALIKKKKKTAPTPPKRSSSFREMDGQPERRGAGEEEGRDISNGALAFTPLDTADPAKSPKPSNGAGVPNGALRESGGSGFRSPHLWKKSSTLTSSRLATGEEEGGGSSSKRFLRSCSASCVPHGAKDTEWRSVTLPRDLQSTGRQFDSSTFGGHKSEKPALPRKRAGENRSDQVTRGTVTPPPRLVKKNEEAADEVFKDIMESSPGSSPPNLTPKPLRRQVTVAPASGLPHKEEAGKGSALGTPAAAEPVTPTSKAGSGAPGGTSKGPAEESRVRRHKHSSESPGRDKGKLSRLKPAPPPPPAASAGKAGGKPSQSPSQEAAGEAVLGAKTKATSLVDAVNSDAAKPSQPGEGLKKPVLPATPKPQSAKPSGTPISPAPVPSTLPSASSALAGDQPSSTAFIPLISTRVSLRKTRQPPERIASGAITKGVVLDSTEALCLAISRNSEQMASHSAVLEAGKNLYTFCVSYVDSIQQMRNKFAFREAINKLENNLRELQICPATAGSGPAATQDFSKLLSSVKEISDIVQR
Outline: as §1

[16] = molecular target: T9, TRIM24 (Homo sapiens, UniProt O15164); test: Liability panel screening by DSF: TRIM24; assay type: binding; conditions: read-out: Mean ΔTM TRIM24
T9 construct: This panel comprised ten highly ligandable kinases and bromodomains; made in house
T9 sequence (O15164 899-1004 limits assumed): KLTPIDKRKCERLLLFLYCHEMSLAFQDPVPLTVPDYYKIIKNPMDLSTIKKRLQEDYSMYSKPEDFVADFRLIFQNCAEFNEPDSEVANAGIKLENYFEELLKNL
Outline: as §1

[17] = molecular target: T10, FGFR3 (Homo sapiens, UniProt P22607); test: Liability panel screening by DSF: FGFR3; assay type: binding; conditions: read-out: Mean ΔTM FGFR3
T10 construct: made in house
T10 sequence (P22607 23-806, species assumed): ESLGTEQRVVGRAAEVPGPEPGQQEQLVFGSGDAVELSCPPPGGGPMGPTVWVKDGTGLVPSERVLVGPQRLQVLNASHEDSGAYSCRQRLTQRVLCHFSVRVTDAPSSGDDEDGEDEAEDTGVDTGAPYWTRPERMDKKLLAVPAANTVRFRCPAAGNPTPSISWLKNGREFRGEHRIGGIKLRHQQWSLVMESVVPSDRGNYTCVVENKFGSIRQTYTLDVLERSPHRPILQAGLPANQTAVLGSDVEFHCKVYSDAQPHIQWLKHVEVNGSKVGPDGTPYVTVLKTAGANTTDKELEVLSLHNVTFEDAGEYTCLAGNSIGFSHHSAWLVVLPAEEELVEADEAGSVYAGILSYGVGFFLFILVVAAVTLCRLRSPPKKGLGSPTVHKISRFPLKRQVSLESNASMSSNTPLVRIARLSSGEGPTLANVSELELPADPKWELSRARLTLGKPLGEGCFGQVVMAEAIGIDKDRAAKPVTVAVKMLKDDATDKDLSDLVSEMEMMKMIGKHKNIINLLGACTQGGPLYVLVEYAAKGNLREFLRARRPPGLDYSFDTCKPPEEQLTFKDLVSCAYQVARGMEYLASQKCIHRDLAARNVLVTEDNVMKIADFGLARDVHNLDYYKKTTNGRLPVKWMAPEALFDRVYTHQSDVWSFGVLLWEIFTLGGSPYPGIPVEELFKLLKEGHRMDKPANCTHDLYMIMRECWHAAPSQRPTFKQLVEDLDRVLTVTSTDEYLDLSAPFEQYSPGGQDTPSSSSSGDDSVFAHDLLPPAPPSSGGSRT
Outline: as §1

[18] = cited from earlier work
[19] = test system: NR3C3 (PR); conditions: (lit.); ref Supplementary Table 1; read-out: Potency [nM] EC50, NR3C3 (PR); cited from earlier work
[20] = test system: HEK293T cells; test: Cytotoxicity: necrosis induction (red fluorescent dye for permeable plasma membranes); assay type: cell-based; conditions: 1 µM, 24 h, necrotic cell count normalized to 0.1% DMSO, single replicates;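 note: compounds applied in DMEM high glucose with 0.1% FCS and 0.1% DMSO, necrotic HEK293T cells counted by red staining of cells whose plasma membranes had become permeable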
[21] = test system: ATF6 activity in Hela ATF6 reporter cells; test: Endoplasmic reticulum stress assay (ATF6 Renilla luciferase reporter, tunicamycin); assay type: cell-based; conditions: Homo sapiens, HeLa, 1 µM, single replicates n=1 to n=5; read-out: ER stress [rel. ATF6 activity]
Outline: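 HeLa ATF6 Renilla reporter cells were pretreated 4 h with compounds in 0.1% DMSO, then stimulated with tunicamycin (100 ng/mL) for 18 h. Renilla luminescence (DualGlo) was normalized to 0.1% DMSO control; five independent experiments.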

[22] = test system: NR3C2 (MR); conditions: (lit.); ref Supplementary Table 1; read-out: Potency [nM] EC50, NR3C2 (MR); cited from earlier work
[23] = test system: NF-κB activity in HEK293 NF-κB reporter cells; test: NF-kB activity assay (GFP reporter, ionomycin/PMA); assay type: cell-based; conditions: n=3
Outline: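 HEK293 NF-κB GFP reporter cells given compound in 0.1% DMSO for 4 h, then stimulated with ionomycin 100 ng/mL plus PMA 10 ng/mL. Imaged every 90 min over 24 h; GFP-positive cell count normalized to confluence, three independent biological replicates.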

[24] = test system: NR3C1 (GR); conditions: (lit.); ref Supplementary Table 1; read-out: Potency [nM] EC50, NR3C1 (GR); cited from earlier work
[25] = test system: NR3C4 (AR); conditions: read-out: Potency [nM] EC50, NR3C4 (AR); cited from earlier work

C#C[C@]1(O)CC[C@H]2[C@@H]3CCc4cc(O)ccc4[C@H]3CC[C@@]21C [Ethinylestradiol]
ΔTm at 20 µM ([1]; DSF, 20 µM, n=2): 0.13 °C | ΔTm at 20 µM ([2]; DSF, 20 µM, n=2): 0.23 °C | Metabolic activity [MA] ([3]; DMSO 0.1% = 1.00): 1.06 (2×) and 0.82 and 1.07 and 1.00 and 0.95 | EC50 [4]: 8 ± 1 nM | ΔTm at 20 µM ([5]; DSF, 20 µM, n=2): 0.11 °C | effects on growth-rate, metabolic activity and necrosis [6]: without relevant effects | Growth rate [GR] [7]: 1.36 and 0.84 and 1.03 and 0.88 and 0.94 and 0.78 | ΔTm at 20 µM ([8]; DSF, 20 µM, n=2): 0.07 °C | Apoptosis induction [AI] ([9]; DMSO 0.1% = 1.00): 1.56 and 1.81 | apoptosis induction ([9]; HEK293T, 24 h, budesonide (3 µM), others at tested concentration): slight apoptosis induction | ΔTm at 20 µM ([10]; DSF, 20 µM, n=2): -0.25 °C | VP16 control [fold reporter gene activity] (n=3), n=1 ([11]; replicate n=1): 1.03 fold | VP16 control [fold reporter gene activity] (n=3), n=2 ([11]; replicate n=2): 0.89 fold | VP16 control [fold reporter gene activity] (n=3), n=3 ([11]; replicate n=3): 0.92 fold | ΔTm at 20 µM ([12]; DSF, 20 µM, n=2): 1.32 °C | ΔTm at 20 µM ([13]; DSF, 20 µM, n=2): 0.35 °C | EC50 [14]: 18 ± 2 nM | ΔTm at 20 µM ([15]; DSF, 20 µM, n=2): -0.29 °C | ΔTm at 20 µM ([16]; DSF, 20 µM, n=2): -1.12 °C | ΔTm at 20 µM ([17]; DSF, 20 µM, n=2): -0.28 °C | NR off-target at recom. conc. ([18]; known NR off-target at the recommended concentration, ref Supplementary Table 1 (superscript references)): NR1I3 | Other off-target at recom. conc. ([18]; known off-target outside the NR family at the recommended concentration, ref Supplementary Table 1 (superscript references)): AOX1 and CYP2B6 and SULT1A1 and OCT2 | Reason for exclusion: number of annotated off-targets ([18]; other targets with annotated bioactivities at ≤10 µM in previously published dataset): > 5 off-targets

C[C@]1(O)CC[C@H]2[C@@H]3CCC4=CC(=O)CCC4=C3C=C[C@@]21C [Methyltrienolone]
ΔTm at 20 µM [1]: -0.94 °C | ΔTm at 20 µM [2]: -0.24 °C | EC50 [19]: 0.5 ± 0.3 nM | Metabolic activity [MA] ([3]; HEK293T, 24 h, WST-8, normalized to 0.1% DMSO): 0.98 and 1.02 and 0.97 (2×) and 1.07 and 1.05 and 1.13 and 1.10 | ΔTm at 20 µM [5]: 0.08 °C | Necrosis induction [NI] [20]: 0.85 and 1.01 and 0.97 and 1.35 | activity at 1 µM [21]: 100% | EC50 [22]: 0.5 ± 0.1 nM | Growth rate [GR] [7]: 0.54 and 2.52 and 1.01 and 1.07 and 0.85 and 1.02 and 1.00 and 1.19 and 1.25 and 1.79 | ΔTm at 20 µM [8]: -0.05 °C | Apoptosis induction [AI] ([9]; HEK293T, 24 h, apoptotic cell count normalized to 0.1% DMSO): 0.87 and 1.36 and 0.90 and 1.12 and 0.53 and 0.75 | ΔTm at 20 µM [10]: -0.06 °C | Mean NFκB response ([23]; 1 µM, 1,5 h): 3531.33 GFP+-cells/confluence ∙ 1000 | Mean NFκB response ([23]; 1 µM, 4,5 h): 3781.33 GFP+-cells/confluence ∙ 1000 | Mean NFκB response ([23]; 1 µM, 7,5 h): 7660.67 GFP+-cells/confluence ∙ 1000 | Mean NFκB response ([23]; 1 µM, 10,5 h): 17176.00 GFP+-cells/confluence ∙ 1000 | Mean NFκB response ([23]; 1 µM, 13,5 h): 24525.33 GFP+-cells/confluence ∙ 1000 | Mean NFκB response ([23]; 1 µM, 16,6 h): 30685.33 GFP+-cells/confluence ∙ 1000 | Mean NFκB response ([23]; 1 µM, 19,5 h): 34386.67 GFP+-cells/confluence ∙ 1000 | Mean NFκB response ([23]; 1 µM, 22,5 h): 37650.00 GFP+-cells/confluence ∙ 1000 | Mean NFκB response ([23]; 1 µM, 3 h): 3552.67 GFP+-cells/confluence ∙ 1000 | Mean NFκB response ([23]; 1 µM, 6 h): 4781.67 GFP+-cells/confluence ∙ 1000 | Mean NFκB response ([23]; 1 µM, 9 h): 12656.33 GFP+-cells/confluence ∙ 1000 | Mean NFκB response ([23]; 1 µM, 12 h): 21183.67 GFP+-cells/confluence ∙ 1000 | Mean NFκB response ([23]; 1 µM, 15 h): 28114.67 GFP+-cells/confluence ∙ 1000 | Mean NFκB response ([23]; 1 µM, 18 h): 32970.33 GFP+-cells/confluence ∙ 1000 | Mean NFκB response ([23]; 1 µM, 21 h): 36266.67 GFP+-cells/confluence ∙ 1000 | Mean NFκB response ([23]; 1 µM, 24 h): 38486.67 GFP+-cells/confluence ∙ 1000 | ΔTm at 20 µM [12]: -1.21 °C | ΔTm at 20 µM [13]: -0.02 °C | ΔTm at 20 µM [15]: 0.42 °C | ΔTm at 20 µM [16]: -0.03 °C | ΔTm at 20 µM [17]: 0.15 °C | EC50 [24]: 10 ± 4 nM | EC50 [25]: 0.01 ± 0.01 nM
